Consider four compounds from patent US20120114576A1, “Method for preventing or treating yellowish discoloration of skin” (Shiseido Company, Ltd., priority 2010, published 2012).

The experiment concerns the target T1, acellular dermis model (contracted collagen gel) (Bos taurus, UniProt P02453+P02465).
T1 construct: purchased Koken, Tokyo, Japan; host or cells: The gel was contracted by dermal fibroblasts, which were then destroyed by washing with de-ionized water
Nature of the experiment: Experimental induction of yellowish change in acellular dermis model by carbonyl modification or glycation (colorimetry b*). Also noted: species or system bovine. Conditions: 37° C.; for yellowish change of the dermal model (b*), long term treatment: 50 μM, 50 days, FIGS. 6 C and D; for yellowish change of the gel (b*): 9 days, FIGS. 6 A and B. How it is done:
Skin color was measured by using a chromameter Konica-Minolta CM 2600d. The measurement of excised skin samples was performed by placing the skin samples on a white board. Data were expressed in the CIE L*a*b* color space, and the parameter b* was employed as a value for yellowish color.
A dermal equivalent model consisted of contracted collagen gel containing a trace amount of other extracellular matrix was prepared according to the method described by Tsunenaga et al. with a slight modification. Briefly, dermal fibroblasts (1×10^6 cells) were cultivated in 10 ml of Dulbecco's modified Eagle's medium supplemented with 10% fetal bovine serum and 0.3% acid-solubilized bovine type I collagen (Koken, Tokyo, Japan) in a petri dish of 60 mm diameter at 37° C. and 5% CO2. After 7 days of culture, a contracted collagen gel approximately 15 mm diameter was produced. Thereafter, this dermal equivalent model was extensively washed with serial changes of an excess amount of de-ionized water to destroy fibroblasts and to remove soluble materials.
The prepared acellular dermis model was incubated in 2.5 ml of an aqueous solution of chemical reagents, containing acrolein (50 μM to 10 mM) and 4-hydroxynonenal (4-HNE, 50 μM to 10 mM) for the carbonyl modification, and ribose (200 mM) and glyoxal (10 mM) for glycation. They were INCUBATED at 37° C. and the solutions were changed twice a week. Changes taking place in their color were monitored by colorimetry.
To confirm a link suspected between the carbonyl modification and the yellowish change of the dermis, the inventors examined the effect of experimentally produced carbonyl modification on the color of an acellular dermis model, and selected a contracted collagen gel as a dermis model, and treated it with acrolein or 4-HNE to induce carbonyl modification, or with d-ribose or glyoxal to induce glycation as a reference. […] Furthermore, a long term treatment of the dermis model with 50 μM acrolein or 50 μM 4-HNE, which were almost equivalent to those of the physiological concentrations in human tissue, also led to the yellowish colorization (FIGS. 6 C and D).

T1 sequence (P02453 162-1217 limits assumed): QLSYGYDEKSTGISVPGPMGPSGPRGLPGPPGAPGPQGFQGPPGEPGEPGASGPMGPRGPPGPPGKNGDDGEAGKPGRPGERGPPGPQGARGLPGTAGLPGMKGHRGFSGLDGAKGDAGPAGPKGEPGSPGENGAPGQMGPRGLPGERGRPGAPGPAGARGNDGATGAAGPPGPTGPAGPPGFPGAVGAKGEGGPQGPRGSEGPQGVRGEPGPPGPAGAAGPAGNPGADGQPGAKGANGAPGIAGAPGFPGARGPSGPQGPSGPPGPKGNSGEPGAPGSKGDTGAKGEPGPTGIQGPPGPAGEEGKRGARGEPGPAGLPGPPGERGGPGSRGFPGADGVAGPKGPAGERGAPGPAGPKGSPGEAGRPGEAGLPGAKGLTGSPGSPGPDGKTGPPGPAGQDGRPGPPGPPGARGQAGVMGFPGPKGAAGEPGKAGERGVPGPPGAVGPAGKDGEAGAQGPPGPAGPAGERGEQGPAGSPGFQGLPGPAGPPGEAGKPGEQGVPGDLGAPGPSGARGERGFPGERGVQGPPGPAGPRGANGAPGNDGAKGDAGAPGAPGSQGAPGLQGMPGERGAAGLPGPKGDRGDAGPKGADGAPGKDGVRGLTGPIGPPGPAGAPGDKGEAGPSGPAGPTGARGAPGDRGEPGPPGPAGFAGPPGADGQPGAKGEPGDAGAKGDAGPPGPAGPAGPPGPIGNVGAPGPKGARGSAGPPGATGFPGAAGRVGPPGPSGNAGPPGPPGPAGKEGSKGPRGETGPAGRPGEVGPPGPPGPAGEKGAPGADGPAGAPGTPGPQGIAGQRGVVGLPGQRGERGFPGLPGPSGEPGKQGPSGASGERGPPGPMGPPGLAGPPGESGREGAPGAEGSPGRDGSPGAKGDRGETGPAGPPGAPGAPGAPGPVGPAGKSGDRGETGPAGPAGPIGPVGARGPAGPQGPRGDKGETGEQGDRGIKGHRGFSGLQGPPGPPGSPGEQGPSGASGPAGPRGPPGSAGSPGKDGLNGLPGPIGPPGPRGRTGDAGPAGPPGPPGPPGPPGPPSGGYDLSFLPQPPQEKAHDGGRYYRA
T1 sequence (P02465 80-1117 limits assumed): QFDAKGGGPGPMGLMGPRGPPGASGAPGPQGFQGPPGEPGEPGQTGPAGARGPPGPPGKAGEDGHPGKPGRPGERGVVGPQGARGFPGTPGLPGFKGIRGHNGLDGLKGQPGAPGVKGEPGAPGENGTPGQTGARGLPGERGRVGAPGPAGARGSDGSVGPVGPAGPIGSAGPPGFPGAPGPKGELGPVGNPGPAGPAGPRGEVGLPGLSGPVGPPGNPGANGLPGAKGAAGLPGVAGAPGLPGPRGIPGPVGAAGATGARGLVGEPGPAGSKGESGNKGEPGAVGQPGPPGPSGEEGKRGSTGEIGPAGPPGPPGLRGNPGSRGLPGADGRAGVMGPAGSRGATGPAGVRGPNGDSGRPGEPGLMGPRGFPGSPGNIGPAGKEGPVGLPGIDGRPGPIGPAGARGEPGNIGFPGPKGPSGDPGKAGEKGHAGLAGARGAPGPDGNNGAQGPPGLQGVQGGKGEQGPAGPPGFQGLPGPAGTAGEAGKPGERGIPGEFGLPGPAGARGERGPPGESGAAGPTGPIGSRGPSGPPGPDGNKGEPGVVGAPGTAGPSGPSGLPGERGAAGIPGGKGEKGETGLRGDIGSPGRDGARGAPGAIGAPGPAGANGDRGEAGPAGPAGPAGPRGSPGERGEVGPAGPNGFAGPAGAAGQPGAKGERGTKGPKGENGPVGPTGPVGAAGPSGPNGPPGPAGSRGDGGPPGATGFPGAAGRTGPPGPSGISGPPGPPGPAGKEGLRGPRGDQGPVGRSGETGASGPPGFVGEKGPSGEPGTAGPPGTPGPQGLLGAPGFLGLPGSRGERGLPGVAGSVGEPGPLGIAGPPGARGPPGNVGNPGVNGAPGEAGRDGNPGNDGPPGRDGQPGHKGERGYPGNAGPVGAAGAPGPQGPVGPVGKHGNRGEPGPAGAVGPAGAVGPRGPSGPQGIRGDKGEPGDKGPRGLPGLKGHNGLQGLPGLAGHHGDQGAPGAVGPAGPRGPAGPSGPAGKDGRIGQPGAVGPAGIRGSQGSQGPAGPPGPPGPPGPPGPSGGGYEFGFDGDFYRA

Regarding `CCCCCC(O)/C=C/C=O` (stereo not drawn) [4-HNE, 4-hydroxynonenal], the “yellowish change of the dermal model (b*), long term treatment” value is “reached the maximum in the first 10 days”. The “yellowish change of the gel (b*)” value (10 mM) is “significant yellowish change”. The corresponding values for `C=CC=O` [acrolein] are “almost linear increase depending on the treatment period” and “significant yellowish change”.

For `O=C[C@H](O)[C@H](O)[C@H](O)CO` [d-ribose], the “yellowish change of the gel (b*)” value (200 mM) is given as “only a slight yellowish change”.

Take `O=CC=O` [glyoxal]: the “yellowish change of the gel (b*)” value (10 mM) is “only a slight yellowish change”.
